This note sets out measurements from patent publication US20230348369A1 (Cytokinetics, Inc., priority 2020, published 2023).

Read-outs that look alike come from different tables or passages of the source.

The EC50 is the concentration at which the effect is half-maximal.

The test concerns the target human NAMPT (Homo sapiens, UniProt P43490). The test is described as follows: Human recombinant enzyme assay (NMN fluorescence biochemical assay, activation of NAMPT). The method in brief: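 Activation of recombinant human NAMPT (6 nM) with 2.5 mM ATP, 20 μM PRPP and 150 μM nicotinamide in 50 mM HEPES pH 7.2, 1 mM DTT, 1 mM CHAPS, 50 mM NaCl, 100 mM MgCl2; 60 min, ambient temperature. NMN formed was derivatized with acetophenone/KOH/formic acid, fluorescence read at 355/460 nm after 40 min.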

The mark [1] stands for this setting: Table A, human recombinant NAMPT, NMN formation, 60 min.
The mark [2] stands for this setting: Table A, human recombinant NAMPT, NMN formation, 60 min, read-out: EC50 Human.

human NAMPT, sequence (P43490 whole entry): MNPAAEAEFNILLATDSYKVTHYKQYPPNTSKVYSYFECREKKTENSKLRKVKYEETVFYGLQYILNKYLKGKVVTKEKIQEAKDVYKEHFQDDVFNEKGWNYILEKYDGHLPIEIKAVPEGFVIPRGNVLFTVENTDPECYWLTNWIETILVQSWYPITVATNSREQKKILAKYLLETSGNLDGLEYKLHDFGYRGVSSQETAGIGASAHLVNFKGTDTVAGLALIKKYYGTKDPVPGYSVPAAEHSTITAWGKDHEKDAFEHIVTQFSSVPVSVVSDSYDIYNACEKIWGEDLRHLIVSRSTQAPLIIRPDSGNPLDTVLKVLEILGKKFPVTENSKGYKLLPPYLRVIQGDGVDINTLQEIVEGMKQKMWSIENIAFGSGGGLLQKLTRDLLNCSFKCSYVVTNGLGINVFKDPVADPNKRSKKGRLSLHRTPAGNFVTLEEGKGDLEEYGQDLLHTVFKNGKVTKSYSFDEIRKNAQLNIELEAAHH

For `COc1ccc(CNC(=O)NC2CC3(C2)CC(C(=O)N2CCN(C)CC2)C3)cc1` (centres unmarked) [Compound 230, 1-(4-methoxybenzyl)-3-(6-(4-methylpiperazine-1-carbonyl)spiro[3.3]heptan-2-yl)urea], the “AC1.4 Human” value under setting [1] was 1.8 µM. For the same compound, the EC50 under setting [2] was determined as 30.9 µM.
Turning to `COC(=O)N1CCN(C(=O)C2CC3(CC(NC(=O)NCc4ccc(OC)cc4)C3)C2)CC1` (centres unmarked) [Compound 231, methyl 4-(6-(3-(4-methoxybenzyl)ureido)spiro[3.3]heptane-2-carbonyl)piperazine-1-carboxylate], the EC50 was 7.8 µM. Further, the “AC1.4 Human” value under setting [1] came out at 0.5 µM.
On to `COc1ccc(CNC(=O)NC2CC3(C2)CC(C(=O)N2CCS(=O)(=O)CC2)C3)cc1` (centres unmarked) [Compound 232, 1-(6-(1,1-dioxoidothiomorpholine-4-carbonyl)spiro[3.3]heptan-2-yl)-3-(4-methoxybenzyl)urea], for which the “AC1.4 Human” value under setting [1] worked out at 3.6 µM. Moreover, under setting [2], the EC50 was 37.8 µM.
On the same counts, the results for `COC(=O)N1CCN(C(=O)C2CC3(CC(NC(=O)NCc4ccc(Cl)cc4)C3)C2)CC1` (centres unmarked) [Compound 233, Methyl 4-(6-(3-(4-chlorobenzyl)ureido)spiro[3.3]heptane-2-carbonyl)piperazine-1-carboxylate] are 0.9 µM and 1 µM.
On the same counts, the results for `CC(C)(O)CN1CCN(C(=O)CC2CC3(C2)CC(NC(=O)NCc2ccc(Cl)cc2)C3)CC1` (centres unmarked) [Compound 234, 1-(4-chlorobenzyl)-3-(6-(2-(4-(2-hydoxy-2-methylpropyl)piperazin-1-yl)-2-oxoethyl)spiro[3.3]heptan-2-yl)urea] are 3.7 µM and 8.6 µM.
Turning to `O=C(NCc1ccc(Cl)cc1)NC1CC2(CC(CC(=O)N3CCC[C@H]3CO)C2)C1` (stereo partly drawn) [Compound 235, (S)-1-(4-chlorobenzyl)-3-(6-(2-(2-(hydroxymethyl)pyrrolidin-1-yl)-2-oxoethyl)spiro[3.3]heptan-2-yl)urea], the “AC1.4 Human” value under setting [1] is 4.1 µM. In addition, under setting [2], the EC50 was found to be 7.5 µM.
On to `O=C(NCc1ccc(Cl)cc1)NC1CC2(CC(CC(=O)N3CCCC3)C2)C1` (centres unmarked) [Compound 236, 1-(4-chlorobenzyl)-3-(6-(2-oxo-2-(pyrrolidin-1-yl)ethyl)spiro[3.3]heptan-2-yl)urea], for which the “AC1.4 Human” value under setting [1] came out at 3.6 µM. Also, the EC50 under setting [2] was 5.7 µM.
Take `CC(C(=O)N(C)Cc1ccccc1)C1CC2(CC(NC(=O)NCc3ccc(Cl)cc3)C2)C1` (centres unmarked) [Compound 237, N-benzyl-2-(6-(3-(4-chlorobenzyl)ureido)spiro[3.3]heptan-2-yl)-N-methylpropanamide]: under setting [1], the “AC1.4 Human” value stood at 2.4 µM. Moreover, the EC50 under setting [2] worked out at 2.6 µM.
On the same counts, the results for `CN1CCN(CC2CC3(C2)CC(NC(=O)NCc2ccc(Cl)cc2)C3)CC1=O` (centres unmarked) [Compound 238, 1-(4-chlorobenzyl)-3-(6-((4-methyl-3-oxopiperazin-1-yl)methyl)spiro[3.3]heptan-2-yl)urea] are 3.4 µM and 20.3 µM.
In the case of `O=C(NCc1ccc(Cl)cc1)NC1CC2(CC(CN3CCC[C@@H]3c3cccnc3)C2)C1` (stereo partly drawn) [Compound 239, (R)-1-(4-chlorobenzyl)-3-(6-((2-(pyridin-3-yl)pyrrolidin-1-yl)methyl)spiro[3.3]heptan-2-yl)urea], the “AC1.4 Human” value under setting [1] turned out to be 2.1 µM. In addition, the EC50 under setting [2] is 22.5 µM.
Regarding `Cc1ccc(C(=O)NCC2CC3(C2)CC(NC(=O)NCc2ccc(Cl)cc2)C3)cn1` (centres unmarked) [Compound 240, N-((6-(3-(4-chlorobenzyl)ureido)spiro[3.3]heptan-2-yl)methyl)-6-methylnicotinamide], the “AC1.4 Human” value under setting [1] stood at 0.9 µM. For the same compound, the EC50 under setting [2] was 3 µM.
The like results for `CC1CCC(=O)N1CC1CC2(C1)CC(NC(=O)NCc1ccc(Cl)cc1)C2` (centres unmarked) [Compound 241, 1-(4-chlorobenzyl)-3-(6-((2-methyl-5-oxopyrrolidin-1-yl)methyl)spiro[3.3]heptan-2-yl)urea] were, in that order, 2.7 µM and 5.7 µM.
`O=C(NCc1ccc(Cl)cc1)NC1CC2(CC(Cn3nncc3-c3ccccc3)C2)C1` (centres unmarked) [Compound 242, 1-(4-chlorobenzyl)-3-(6-((5-phenyl-1H-1,2,3-triazol-1-yl)methyl)spiro[3.3]heptan-2-yl)urea]: the “AC1.4 Human” value under setting [1] was 3.6 µM. For the same compound, the EC50 under setting [2] was determined as 0.8 µM.
As to `O=C(NCc1ccc(Cl)cc1)NC1CC2(CC(CNC(=O)C3CCS(=O)(=O)CC3)C2)C1` (centres unmarked) [Compound 243, N-((6-(3-(4-chlorobenzyl)ureido)spiro[3.3]heptan-2-yl)methyl)tetrahydro-2H-thiopyran-4-carboxamide 1,1-dioxide], under setting [1], the “AC1.4 Human” value was 1.5 µM. In addition, the EC50 under setting [2] was found to be 4.2 µM.
`CC1CCN(CC2CC3(C2)CC(NC(=O)NCc2ccc(Cl)cc2)C3)C1=O` (centres unmarked) [Compound 244, 1-(4-chlorobenzyl)-3-(6-((3-methyl-2-oxopyrrolidin-1-yl)methyl)spiro[3.3]heptan-2-yl)urea]: the “AC1.4 Human” value under setting [1] was determined as 3.4 µM. Further, the EC50 under setting [2] was 7.3 µM.
Turning to `Cc1cccc(C(=O)NCC2CC3(C2)CC(NC(=O)NCc2ccc(Cl)cc2)C3)n1` (centres unmarked) [Compound 245, N-((6-(3-(4-chlorobenzyl)ureido)spiro[3.3]heptan-2-yl)methyl)-6-methylpicolinamide], the EC50 was 4.9 µM. In addition, the “AC1.4 Human” value under setting [1] came out at 3.1 µM.
As for `Cc1cc(C(=O)NCC2CC3(C2)CC(NC(=O)NCc2ccc(Cl)cc2)C3)ccn1` (centres unmarked) [Compound 246, N-((6-(3-(4-chlorobenzyl)ureido)spiro[3.3]heptan-2-yl)methyl)-2-methylisonicotinamide], the “AC1.4 Human” value under setting [1] was determined as 2.1 µM. Under setting [2], the EC50 worked out at 4.2 µM.
Regarding `O=C(NCc1ccc(Cl)cc1)NC1CC2(CC(CNC(=O)c3cn[nH]c3)C2)C1` (centres unmarked) [Compound 247, N-((6-(3-(4-chlorobenzyl)ureido)spiro[3.3]heptan-2-yl)methyl)-1H-pyrazole-4-carboxamide], the “AC1.4 Human” value under setting [1] is 2.8 µM. Under setting [2], the EC50 came to 7.9 µM.
The like results for `Cc1ccc(C(=O)N(C)CC2CC3(C2)CC(NC(=O)NCc2ccc(Cl)cc2)C3)cn1` (centres unmarked) [Compound 248, N-((6-(3-(4-chlorobenzyl)ureido)spiro[3.3]heptan-2-yl)methyl)-N,6-dimethylnicotinamide] were, in that order, 5.0 µM and 6.6 µM.
On to `O=C(NCc1ccc(Cl)cc1)NC1CC2(CC(CNC(=O)C3CCOCC3)C2)C1` (centres unmarked) [Compound 250, N-((6-(3-(4-chlorobenzyl)ureido)spiro[3.3]heptan-2-yl)methyl)tetrahydro-2H-pyran-4-carboxamide], for which the “AC1.4 Human” value under setting [1] came out at 1.8 µM. Under setting [2], the EC50 was found to be 7.7 µM.
On the same counts, the results for `O=C(NCc1ccc(Cl)cc1)NC1CC2(CC(CNC(=O)C3CCCC3)C2)C1` (centres unmarked) [Compound 251, N-((6-(3-(4-chlorobenzyl)ureido)spiro[3.3]heptan-2-yl)methyl)cyclopentanecarboxamide] are 2.6 µM and 6.1 µM.
In the case of `O=C1CC(C(=O)NCC2CC3(C2)CC(NC(=O)NCc2ccc(Cl)cc2)C3)CCN1` (centres unmarked) [Compound 252, N-((6-(3-(4-chlorobenzyl)ureido)spiro[3.3]heptan-2-yl)methyl)-2-oxopiperidine-4-carboxamide], the “AC1.4 Human” value under setting [1] was determined as 2.8 µM. Further, the EC50 under setting [2] was determined as 9.1 µM.
`CC(C1CC2(CC(NC(=O)NCc3ccc(Cl)cc3)C2)C1)N1CCN(C)C(=O)C1` (centres unmarked) [Compound 253, 1-(4-chlorobenzyl)-3-(6-(1-(4-methyl-3-oxopiperazin-1-yl)ethyl)spiro[3.3]heptan-2-yl)urea]: under setting [1], the “AC1.4 Human” value was found to be 3.2 µM. Under setting [2], the EC50 came out at 5.5 µM.
The like results for `CN1CCN(CC2CC3(C2)CC(NC(=O)NCc2ccc(Cl)cc2)C3)C(c2ccccc2)C1` (centres unmarked) [Compound 254, 1-(4-chlorobenzyl)-3-(6-((4-methyl-2-phenylpiperazin-1-yl)methyl)spiro[3.3]heptan-2-yl)urea] were, in that order, 1.5 µM and 2.3 µM.
The like results for `Cc1ccc(C(=O)NC(C)C2CC3(CC(NC(=O)NCc4ccc(Cl)cc4)C3)C2)cn1` (centres unmarked) [Compound 255, N-(1-(6-(3-(4-chlorobenzyl)ureido)spiro[3.3]heptan-2-yl)ethyl)-6-methylnicotinamide] were, in that order, 2.5 µM and 6.5 µM.
Consider `O=C(CCCCCNC(=O)NCc1ccc(Cl)cc1)NC1CCCCC1` [Compound 257, 6-(3-(4-chlorobenzyl)ureido)-N-cyclohexylhexanamide], for which the “AC1.4 Human” value under setting [1] was 2.7 µM. Also, under setting [2], the EC50 was 17.9 µM.
For `O=C(CCCCCNC(=O)NCc1ccc(Cl)cc1)NC1CCCC1` [Compound 258, 6-(3-(4-chlorobenzyl)ureido)-N-cyclopentylhexanamide], under setting [1], the “AC1.4 Human” value was found to be 3.8 µM. Also, under setting [2], the EC50 stood at 23.1 µM.
Take `O=C(NCCCCCC(=O)N1CCOCC1)NCc1ccc(Cl)cc1` [Compound 259, 1-(4-chlorobenzyl)-3-(6-morpholine-6-oxohexyl)urea]: the “AC1.4 Human” value under setting [1] worked out at 8.6 µM. Also, the EC50 under setting [2] came to 59.4 µM.
For the compound `CC(C)(C)CN1CCN(C(=O)CCCCCNC(=O)NCc2ccc(Cl)cc2)CC1` [Compound 260, 1-(4-chlorobenzyl)-3-(6-(4-neopentylpiperazin-1-yl)-6-oxohexyl)urea], under setting [1], the “AC1.4 Human” value was determined as 2.0 µM. In addition, under setting [2], the EC50 is 17.5 µM.
`CC(C)(O)CN1CCN(C(=O)CCCCCNC(=O)NCc2ccc(Cl)cc2)CC1` [Compound 261, 1-(4-chlorobenzyl)-3-(6-(4-(2-hydroxy-2-methylpropyl)piperazin-1-yl)-6-oxohexyl)urea]: the “AC1.4 Human” value under setting [1] was 2.8 µM. Moreover, under setting [2], the EC50 worked out at 42.9 µM.
On the same counts, the results for `Cc1ccccc1NC(=O)CCCCCNC(=O)NCc1ccc(Cl)cc1` [Compound 262, 6-(3-(4-chlorobenzyl)ureido)-N-(o-tolyl)hexanamide] are 0.6 µM and 4.9 µM.
